Experimental findings from patent US20160311831A1, “Imidazotriazinones as PDE1 Inhibitors” (H. Lundbeck A/S, priority 2015, published 2016) are described below.

Assay type in all cases: biochemical
One assay deals with PDE1A (Homo sapiens, UniProt P54750). Nature of the assay: PDE1 inhibition assay (PDE1A), SPA with tritium labelled cAMP. As to conditions: 15 nM tritium labelled cAMP, 1 hr at room temperature. The protocol: (§1) PDE1A, PDE1B and PDE1C assays were performed as follows: the assays was performed in 60 μL samples containing a fixed amount of the PDE1 enzym1 (sufficient to convert 20-25% of the cyclic nucleotide substrate), a buffer (50 mM HEPES pH 7.6; 10 mM MgCl2; 0.02% Tween20), 0.1 mg/mL BSA, 15 nM tritium labelled cAMP and varying amounts of inhibitors. Reactions were initiated by addition of the cyclic nucleotide substrate, and reactions were allowed to proceed for 1 hr at room temperature before being terminated through mixing with 20 μL (0.2 mg) yttrium silicate SPA beads (PerkinElmer). The beads were allowed to settle for 1 hr in the dark before the plates were counted in a Wallac 1450 Microbeta counter. The measured signals were converted to activity relative to an uninhibited control (100%) and IC50 values were calculated using XIFit (model 205, IDBS).
PDE1A, sequence (P54750 whole entry): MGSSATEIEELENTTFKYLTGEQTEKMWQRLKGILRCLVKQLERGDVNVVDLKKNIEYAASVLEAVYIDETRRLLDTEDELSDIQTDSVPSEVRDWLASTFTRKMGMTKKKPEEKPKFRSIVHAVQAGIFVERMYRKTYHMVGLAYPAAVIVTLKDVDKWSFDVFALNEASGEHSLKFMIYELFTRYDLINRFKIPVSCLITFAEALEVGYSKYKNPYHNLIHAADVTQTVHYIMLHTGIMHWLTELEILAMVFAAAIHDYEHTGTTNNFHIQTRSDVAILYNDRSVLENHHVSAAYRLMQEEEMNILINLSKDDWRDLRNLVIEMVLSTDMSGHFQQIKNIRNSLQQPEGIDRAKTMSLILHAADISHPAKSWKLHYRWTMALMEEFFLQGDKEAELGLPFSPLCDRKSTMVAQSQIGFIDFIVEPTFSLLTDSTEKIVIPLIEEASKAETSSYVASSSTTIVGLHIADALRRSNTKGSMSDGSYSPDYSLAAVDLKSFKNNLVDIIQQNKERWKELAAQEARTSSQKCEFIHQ

The next assay deals with PDE1C (Homo sapiens, UniProt Q14123). Put plainly: PDE1 inhibition assay (PDE1C), SPA with tritium labelled cAMP. Particulars: 15 nM tritium labelled cAMP, 1 hr at room temperature. The protocol:
as §1

The next assay deals with PDE1B (Homo sapiens, UniProt Q01064). Nature of the assay: PDE1 inhibition assay (PDE1B), SPA with tritium labelled cAMP. As to conditions: 15 nM tritium labelled cAMP, 1 hr at room temperature. The protocol: as §1
PDE1B, sequence (Q01064 whole entry): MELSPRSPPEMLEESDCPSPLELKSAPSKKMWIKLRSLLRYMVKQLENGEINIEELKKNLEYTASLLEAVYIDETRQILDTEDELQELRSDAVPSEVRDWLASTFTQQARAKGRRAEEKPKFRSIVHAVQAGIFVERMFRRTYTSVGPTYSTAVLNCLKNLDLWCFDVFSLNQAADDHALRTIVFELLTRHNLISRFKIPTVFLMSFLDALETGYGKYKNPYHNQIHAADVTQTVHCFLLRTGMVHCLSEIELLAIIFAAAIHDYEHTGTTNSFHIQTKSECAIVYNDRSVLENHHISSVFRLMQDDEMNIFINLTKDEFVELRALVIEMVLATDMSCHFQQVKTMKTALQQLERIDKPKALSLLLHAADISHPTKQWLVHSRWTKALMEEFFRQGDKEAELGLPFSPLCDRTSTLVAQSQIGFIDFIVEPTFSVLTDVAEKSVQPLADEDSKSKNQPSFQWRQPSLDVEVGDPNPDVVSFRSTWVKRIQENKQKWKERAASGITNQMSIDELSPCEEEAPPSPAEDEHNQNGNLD
Another assay has as its target PDE9 (Homo sapiens, UniProt O76083). Nature of the assay: PDE9 inhibition assay, SPA with 3H-cAMP. As to conditions: compound at 10 microM; 10 nM 3H-cAMP, 1 hr incubation. The protocol: A PDE9 assay may for example, be performed as follows: The assay is performed in 60 μL samples containing a fixed amount of the relevant PDE enzyme (sufficient to convert 20-25% of the cyclic nucleotide substrate), a buffer (50 mM HEPES7.6; 10 mM MgCl2; 0.02% Tween20), 0.1 mg/mL BSA, 225 pCi of ^3H-labelled cyclic nucleotide substrate, tritium labeled cAMP to a final concentration of 5 nM and varying amounts of inhibitors. Reactions are initiated by addition of the cyclic nucleotide substrate, and reactions are allowed to proceed for one hr at room temperature before being terminated through mixing with 15 μL 8 mg/mL yttrium silicate SPA beads (Amersham). The beads are allowed to settle for one hr in the dark before the plates are counted in a Wallac 1450 Microbeta counter. The measured signal can be converted to activity relative to an uninhibited control (100%) and IC50 values can be calculated using the Xlfit extension to EXCEL.
In the context of the present invention the assay was performed in 60 uL assay buffer (50 mM HEPES pH 7.6; 10 mM MgCl2; 0.02% Tween20) containing enough PDE9 to convert 20-25% of 10 nM ^3H-cAMP and varying amounts of inhibitors. Following a 1 hr incubation the reactions were terminated by addition of 15 uL 8 mg/mL yttrium silicate SPA beads (Amersham). The beads were allowed to settle for one hr in the dark before the plates were counted in a Wallac 1450 Microbeta counter.

PDE9, sequence (O76083 whole entry): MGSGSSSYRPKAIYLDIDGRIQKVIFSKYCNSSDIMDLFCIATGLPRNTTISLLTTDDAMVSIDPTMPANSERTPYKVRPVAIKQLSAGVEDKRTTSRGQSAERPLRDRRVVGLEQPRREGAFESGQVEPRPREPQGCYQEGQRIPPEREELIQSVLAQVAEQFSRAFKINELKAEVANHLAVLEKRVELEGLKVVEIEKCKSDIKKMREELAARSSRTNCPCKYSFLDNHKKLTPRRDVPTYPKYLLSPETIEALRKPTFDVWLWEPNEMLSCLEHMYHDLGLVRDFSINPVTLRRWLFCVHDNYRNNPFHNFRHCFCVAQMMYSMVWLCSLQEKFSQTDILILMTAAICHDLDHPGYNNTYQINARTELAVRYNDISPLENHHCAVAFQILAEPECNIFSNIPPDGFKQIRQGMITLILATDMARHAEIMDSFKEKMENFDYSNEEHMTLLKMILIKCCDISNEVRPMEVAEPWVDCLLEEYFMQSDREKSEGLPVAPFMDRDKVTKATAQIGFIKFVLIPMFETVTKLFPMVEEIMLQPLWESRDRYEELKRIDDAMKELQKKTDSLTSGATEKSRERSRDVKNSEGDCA
PDE1C, sequence (Q14123 whole entry): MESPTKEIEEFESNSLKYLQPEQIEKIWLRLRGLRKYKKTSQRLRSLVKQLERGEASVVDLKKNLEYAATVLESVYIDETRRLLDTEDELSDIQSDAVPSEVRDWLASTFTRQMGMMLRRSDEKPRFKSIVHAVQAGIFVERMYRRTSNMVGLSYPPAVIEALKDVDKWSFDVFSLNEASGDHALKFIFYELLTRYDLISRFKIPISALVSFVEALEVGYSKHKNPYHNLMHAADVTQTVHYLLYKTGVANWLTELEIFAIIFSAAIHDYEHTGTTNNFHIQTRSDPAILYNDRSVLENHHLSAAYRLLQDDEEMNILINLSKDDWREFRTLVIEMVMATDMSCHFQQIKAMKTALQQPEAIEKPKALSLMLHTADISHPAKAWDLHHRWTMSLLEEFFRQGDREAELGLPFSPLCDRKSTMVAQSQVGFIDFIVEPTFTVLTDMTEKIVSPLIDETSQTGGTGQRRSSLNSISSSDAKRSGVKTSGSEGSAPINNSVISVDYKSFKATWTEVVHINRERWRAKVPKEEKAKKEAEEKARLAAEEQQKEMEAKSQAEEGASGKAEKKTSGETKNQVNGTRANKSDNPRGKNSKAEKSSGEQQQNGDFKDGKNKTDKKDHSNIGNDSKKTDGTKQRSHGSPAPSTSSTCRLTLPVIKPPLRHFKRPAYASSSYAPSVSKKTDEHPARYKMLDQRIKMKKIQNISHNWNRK

Consider `Cc1ccc(Cc2nn3c(C4CCOCC4)ncc3c(=O)n2CC2CCC2)cc1` [Example 10, 3-(Cyclobutylmethyl)-2-(4-methylbenzyl)-7-(tetrahydro-2H-pyran-4-yl)imidazo[5,1-f][1,2,4]triazin-4(3H)-one], for which the IC50 against PDE1A is 245 nM; against PDE1C, 62 nM; against PDE1B it was 103 nM. Also, the inhibition at 10 µM at PDE9 was -11%.
For the compound `Cc1nn2c(C3CCOCC3)ncc2c(=O)n1CC1CCCCC1` [Example 1, 3-(Cyclohexylmethyl)-2-methyl-7-(tetrahydro-2H-pyran-4-yl)imidazo[5,1-f][1,2,4]triazin-4(3H)-one], the IC50 was determined as 15 nM on PDE1A, 9 nM at PDE1C and 30 nM against PDE1B. Moreover, at PDE9, the inhibition at 10 µM worked out at 26%.
Consider `Cc1nn2c(C3CCOCC3)ncc2c(=O)n1Cc1ccccc1Cl` [Example 16, 3-(2-Chlorobenzyl)-2-methyl-7-(tetrahydro-2H-pyran-4-yl)imidazo[5,1-f][1,2,4]triazin-4(3H)-one], for which the IC50 came out at 118 nM against PDE1A, 20 nM against PDE1C and 220 nM at PDE1B. For the same compound, the inhibition at 10 µM against PDE9 worked out at 11%.
Take `CCn1c(Cc2ccc(C)cc2)nn2c(C3CCOCC3)ncc2c1=O` [Example 3, 3-Ethyl-2-(4-methylbenzyl)-7-(tetrahydro-2H-pyran-4-yl)imidazo[5,1-f][1,2,4]triazin-4(3H)-one]: the IC50 against PDE1A turned out to be 180 nM; against PDE1C, 279 nM; at PDE1B, 79 nM. In addition, the inhibition at 10 µM on PDE9 came to 15%.
On to `Cc1ccc(Cc2nn3c(C4CCOCC4)ncc3c(=O)n2CC2CCOC2)cc1` (single isomer, unassigned) [12 Stereoisomer 2], for which the IC50 on PDE1A was determined as 100 nM; on PDE1C, 151 nM; against PDE1B, 67 nM. Further, the “% inhibition of PDE9 at 10 microM” value on PDE9 is 7%.
On to `Cc1nn2c(C3CCOCC3)ncc2c(=O)n1Cc1ccc(F)cc1` [Example 14, 3-(4-Fluorobenzyl)-2-methyl-7-(tetrahydro-2H-pyran-4-yl)imidazo[5,1-f][1,2,4]triazin-4(3H)-one], for which the IC50 against PDE1A stood at 77 nM; at PDE1C, 35 nM; on PDE1B, 134 nM. The inhibition at 10 µM against PDE9 came out at 18%.
Take `O=c1c2cnc(C3CCOCC3)n2ncn1CC1CCCCC1` [Example 26, 3-(Cyclohexylmethyl)-7-(tetrahydro-2H-pyran-4-yl)imidazo[5,1-f][1,2,4]triazin-4(3H)-one]: the figures for the half-maximal inhibitory concentration (IC50) against PDE1A, on PDE1C and at PDE1B were 554 nM, 103 nM and 376 nM, respectively. Moreover, the inhibition at 10 µM at PDE9 was found to be 8%.
Regarding `Cc1ccc(Cc2nn3c(C4CCOCC4)ncc3c(=O)n2CC2CCCCC2)cc1` [Example 7, 3-(Cyclohexylmethyl)-2-(4-methylbenzyl)-7-(tetrahydro-2H-pyran-4-yl)imidazo[5,1-f][1,2,4]triazin-4(3H)-one], the IC50 was 40 nM at PDE1A, 11 nM on PDE1C and 26 nM on PDE1B. In addition, the inhibition at 10 µM at PDE9 is 11%.
For `Cc1ccc(Cc2nn3c(C4CCOCC4)ncc3c(=O)n2CC2CCCC2)cc1` [Example 6, 3-(Cyclopentylmethyl)-2-(4-methylbenzyl)-7-(tetrahydro-2H-pyran-4-yl)imidazo[5,1-f][1,2,4]triazin-4(3H)-one] the same measures were 29 nM, 4 nM, 63 nM and 2%.

In general, IC50 refers to the concentration that gives 50% inhibition. Lower therefore signals higher potency. By inhibition is commonly meant the drop in the measured response relative to a control, in per cent.
